In data set [1] the target is wild-type human cardiac sodium channel, hNav1.5 (late INa) (Homo sapiens, UniProt Q14524). Kind of data set: Late INa screening assay (QPatch whole cell patch clamp). The format is cell-based. In short, it runs like this: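 Compounds tested at 1 μM final in extracellular solution against tefluthrin (10 μM)-enhanced late current. Automated patch clamp (23-25° C) on HEK293 expressing alpha subunit alone: −120 mV holding, 250 ms depolarization to −20 mV every 10 s. Read-out is percent inhibition of mean current over 225–250 ms.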
Chain of wild-type human cardiac sodium channel, hNav1.5 (late INa) (Q14524 whole entry): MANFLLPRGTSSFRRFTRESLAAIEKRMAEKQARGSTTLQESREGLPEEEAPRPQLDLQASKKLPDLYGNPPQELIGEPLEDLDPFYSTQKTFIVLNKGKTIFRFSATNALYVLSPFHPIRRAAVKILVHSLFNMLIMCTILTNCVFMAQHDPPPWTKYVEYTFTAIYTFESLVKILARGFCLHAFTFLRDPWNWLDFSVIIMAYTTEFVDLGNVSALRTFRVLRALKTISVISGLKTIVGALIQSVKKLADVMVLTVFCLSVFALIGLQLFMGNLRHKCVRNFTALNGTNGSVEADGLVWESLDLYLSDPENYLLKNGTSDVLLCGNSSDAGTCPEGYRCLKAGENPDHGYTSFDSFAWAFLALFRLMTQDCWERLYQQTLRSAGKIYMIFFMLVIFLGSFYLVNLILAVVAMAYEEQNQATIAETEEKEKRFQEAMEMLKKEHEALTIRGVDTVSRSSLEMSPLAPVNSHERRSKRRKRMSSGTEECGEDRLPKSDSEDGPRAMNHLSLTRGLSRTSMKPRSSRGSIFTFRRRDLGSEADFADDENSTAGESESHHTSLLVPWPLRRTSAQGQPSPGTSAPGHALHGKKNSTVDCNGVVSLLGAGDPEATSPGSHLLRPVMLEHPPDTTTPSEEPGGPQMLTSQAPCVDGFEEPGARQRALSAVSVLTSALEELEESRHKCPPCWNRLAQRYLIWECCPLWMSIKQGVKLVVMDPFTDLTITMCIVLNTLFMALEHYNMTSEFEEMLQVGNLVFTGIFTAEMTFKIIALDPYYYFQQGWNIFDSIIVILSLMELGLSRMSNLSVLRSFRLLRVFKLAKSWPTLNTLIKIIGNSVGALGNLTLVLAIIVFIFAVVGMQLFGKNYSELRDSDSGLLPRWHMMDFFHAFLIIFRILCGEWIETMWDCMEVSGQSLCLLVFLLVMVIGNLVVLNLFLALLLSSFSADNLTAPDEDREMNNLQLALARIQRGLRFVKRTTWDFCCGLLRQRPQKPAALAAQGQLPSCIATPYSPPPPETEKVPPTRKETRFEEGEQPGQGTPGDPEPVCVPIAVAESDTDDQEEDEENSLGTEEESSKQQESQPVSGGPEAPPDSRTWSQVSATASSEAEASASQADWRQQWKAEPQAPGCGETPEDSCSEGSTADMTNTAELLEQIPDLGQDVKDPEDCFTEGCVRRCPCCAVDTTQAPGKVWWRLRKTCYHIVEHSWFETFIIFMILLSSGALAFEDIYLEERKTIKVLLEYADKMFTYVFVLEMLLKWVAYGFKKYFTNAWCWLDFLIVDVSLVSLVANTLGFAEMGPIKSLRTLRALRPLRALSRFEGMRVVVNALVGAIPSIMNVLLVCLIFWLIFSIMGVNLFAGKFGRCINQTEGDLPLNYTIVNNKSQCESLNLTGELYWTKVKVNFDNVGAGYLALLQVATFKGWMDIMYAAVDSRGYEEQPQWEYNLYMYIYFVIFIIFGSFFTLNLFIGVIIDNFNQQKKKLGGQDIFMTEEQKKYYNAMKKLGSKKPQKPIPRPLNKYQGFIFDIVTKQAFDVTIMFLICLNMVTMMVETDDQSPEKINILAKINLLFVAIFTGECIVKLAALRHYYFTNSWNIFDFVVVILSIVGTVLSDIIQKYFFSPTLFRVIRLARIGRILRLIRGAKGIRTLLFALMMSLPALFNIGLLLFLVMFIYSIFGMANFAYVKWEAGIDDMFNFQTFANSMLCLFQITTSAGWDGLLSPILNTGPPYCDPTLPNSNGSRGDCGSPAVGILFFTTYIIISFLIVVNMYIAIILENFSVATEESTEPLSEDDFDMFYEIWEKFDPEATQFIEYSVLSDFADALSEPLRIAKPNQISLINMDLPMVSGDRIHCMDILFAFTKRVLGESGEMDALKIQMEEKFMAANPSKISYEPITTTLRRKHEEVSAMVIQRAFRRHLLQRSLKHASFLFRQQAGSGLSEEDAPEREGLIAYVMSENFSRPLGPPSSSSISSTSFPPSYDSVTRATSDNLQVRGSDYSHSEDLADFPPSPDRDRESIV
On the technique in general: Patch clamp records ionic current or voltage across a cell membrane.

The target in the next data set is hERG potassium channel (Homo sapiens, UniProt Q12809). Kind of data set: hERG screening assay (PatchXpress, CHO cells). The format is cell-based. To be noted: for HERG*: % inhibition at 1 μM. As for the experimental part:
Compounds were also tested for their effect to block the hERG K^+ channel.
Compounds were screened to test their activity in blocking the hERG potassium channel at AVIVA Biosciences (San Deigo, Calif., USA). The hERG channel is heterologously expressed in a CHO (Chinese Hamster Ovary) cell line. Cells were maintained with standard tissue culture procedures and stable channel expression was maintained with 500 μg/mL G418 in the culture medium. Cells were harvested for testing on the PatchXpress 7000A automated patch clamp with Accumax (Innovative Cell Technologies, San Diego, Calif.) to isolate single cells.
The following solutions were used for electrophysiological recordings. The external solution contained: 2 mM CaCl2; 2 mM MgCl2; 4 mM KCl; 150 mM NaCl; 10 mM Glucose; 10 mM HEPES (pH 7.4 with 1M NaOH; osmolarity, ˜310 mOsm). The internal solution contained: 140 mM KCl, 10 mM MgCl2, 6 mM EGTA, 5 mM HEPES, 5 mM ATP (pH adjusted to 7.25 with KOH; osmolarity, ˜295 mOsm).
hERG channels were activated when the voltage was first stepped to −50 mV for 300 ms from the −80 mV holding potential and then stepped to +20 mV for 5 seconds. At +20 mV the channels open and then largely inactivate, so the currents are relatively small. Upon returning to −50 mV from +20 mV, hERG currents transiently become much larger as inactivation is rapidly removed and then the channel closes. The first step to −50 mV for 300 ms was used as a baseline for measuring the peak amplitude during the step to −50 mV after channel activation. The peak tail current at −50 mV was measured both under control conditions and after addition of compound, each cell serving as its own control.
All compounds were prepared as 10 mM DMSO stocks in glass vials. Stock solutions were mixed by vigorous vortexing and sonication for about 2 minutes at room temperature. For testing, compounds were diluted in glass vials using an intermediate dilution step in pure DMSO and then further diluted to working concentrations in external solution. Dilutions were prepared no longer than 20 minutes before use.
For the electrophysiological recordings, after achieving the whole-cell configuration, cells were monitored for 90 seconds to assess stability and washed with external solution for 66 seconds. The voltage protocol described above was then applied to the cells every 12 seconds and throughout the whole procedure. Only cells with stable recording parameters and meeting specified health criteria were allowed to enter the compound addition procedure.
External solution containing 0.1% DMSO (vehicle) was applied to the cells first to establish the control peak current amplitude. After allowing the current to stabilize for 3 to 5 minutes, 1 μM and then 10 μM test compounds were applied. Each compound concentration was added 4 times and cells were kept in test solution until the effect of the compound reached steady state or for a maximum of 12 minutes. After addition of test compound, a positive control (1 μM Cisapride) was added and must block >95% of the current for the experiment to be considered valid. Washout in the external solution compartment was performed until the recovery of the current reached steady state.
(hERG is a cardiac potassium channel; its block is linked to QT prolongation.)

A short description of data set [2]: Microsomal stability assay, human. It is filed as in vitro ADME. To be noted: metabolic stability, human liver microsomes 0.5 mg/mL, substrate 3 uM. Put shortly: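 Liver microsomes at 0.5 mg/mL protein in 100 mM KPO4 buffer, incubated with 3 uM compound and NADPH-regenerating system, run in duplicate. Samples taken at 2, 12, 25, 45 and 65 min and quenched in MeOH/ACN/water before analysis.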
On the technique in general: Liver microsomes are vesicles of endoplasmic reticulum, rich in cytochrome P450 enzymes.

[3] abbreviates: % inhibition at 1 μM, read-out: NAv1.5*-LATE-.
The mark [4] stands for this setting: percent block of late INa, compound at 1 μM, 10 μM Tefluthrin, HEK293 hNav1.5, read-out: Late INa 1 μM.

“And” between values parts separate entries of the source, which are not always exact repeats. Equal values may be shown once. Read-outs that look alike come from different tables or passages of the source.

Chain of hERG potassium channel (Q12809 whole entry): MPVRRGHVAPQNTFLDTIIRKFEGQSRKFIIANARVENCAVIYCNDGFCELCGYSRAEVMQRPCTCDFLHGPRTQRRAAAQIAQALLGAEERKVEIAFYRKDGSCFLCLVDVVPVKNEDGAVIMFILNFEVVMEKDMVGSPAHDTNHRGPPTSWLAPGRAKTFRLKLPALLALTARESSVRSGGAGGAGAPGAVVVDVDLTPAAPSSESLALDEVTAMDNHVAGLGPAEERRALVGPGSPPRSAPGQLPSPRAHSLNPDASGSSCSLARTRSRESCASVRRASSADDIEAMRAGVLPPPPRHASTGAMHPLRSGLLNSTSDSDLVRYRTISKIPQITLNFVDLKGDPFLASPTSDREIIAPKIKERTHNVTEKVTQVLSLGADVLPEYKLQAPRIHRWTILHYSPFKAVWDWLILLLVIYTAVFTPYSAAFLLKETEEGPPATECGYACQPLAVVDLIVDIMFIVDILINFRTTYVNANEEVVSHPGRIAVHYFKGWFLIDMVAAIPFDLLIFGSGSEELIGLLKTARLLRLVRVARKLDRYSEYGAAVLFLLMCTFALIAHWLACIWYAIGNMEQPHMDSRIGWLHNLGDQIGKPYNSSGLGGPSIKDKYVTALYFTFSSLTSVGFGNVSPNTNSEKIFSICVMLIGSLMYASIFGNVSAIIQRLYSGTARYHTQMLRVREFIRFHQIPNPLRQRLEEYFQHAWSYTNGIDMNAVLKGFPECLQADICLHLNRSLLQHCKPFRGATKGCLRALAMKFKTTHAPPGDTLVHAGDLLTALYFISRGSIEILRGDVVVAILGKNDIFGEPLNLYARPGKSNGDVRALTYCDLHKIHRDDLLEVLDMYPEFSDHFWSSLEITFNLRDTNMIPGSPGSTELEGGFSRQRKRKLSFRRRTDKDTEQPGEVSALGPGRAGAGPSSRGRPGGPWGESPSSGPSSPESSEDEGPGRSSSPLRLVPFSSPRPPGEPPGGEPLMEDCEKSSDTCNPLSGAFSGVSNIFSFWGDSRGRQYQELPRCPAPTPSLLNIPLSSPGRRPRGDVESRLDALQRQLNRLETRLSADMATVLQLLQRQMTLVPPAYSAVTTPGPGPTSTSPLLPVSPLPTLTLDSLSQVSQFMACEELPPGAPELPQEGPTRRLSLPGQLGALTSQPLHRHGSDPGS

With `Cc1noc(Cn2nnc3ccc(-c4ccc(OC(F)(F)F)cc4)cc3c2=O)n1` [II-3, 3-((3-methyl-1,2,4-oxadiazol-5-yl)methyl)-6-(4-(trifluoromethoxy)phenyl)benzo[d][1,2,3]triazin-4(3H)-one], the inhibition at 1 µM in data set [1] (setting [3]) and in data set [1] (setting [4]) was 53% each time. On hERG potassium channel, the “HERG*” value is 15.5% and 16%. Further, the inhibition at 10 µM against hERG potassium channel (human, CHO cells that heterologously express the hERG channel, pH 7.4, at 10 μM) is 24.5%. Moreover, the MS Human THalf in data set [2] came to 336 min.

As to `O=c1c2cc(-c3ccc(OC(F)(F)F)cc3)ccc2nnn1Cc1noc(C2CC2)n1` [II-14, 3-((5-cyclopropyl-1,2,4-oxadiazol-3-yl)methyl)-6-(4-(trifluoromethoxy)phenyl)benzo[d][1,2,3]triazin-4(3H)-one], the inhibition at 1 µM in data set [1] (setting [3]) and in data set [1] (setting [4]) was 68% in each case. Also, at hERG potassium channel, the “HERG*” value was less than 10%. The MS Human THalf in data set [2] was determined as 236 min.

Consider `O=c1c2cc(-c3ccc(OC(F)(F)F)cc3)ccc2nnn1CCc1ccncn1` [II-17, 3-(2-(pyrimidin-4-yl)ethyl)-6-(4-(trifluoromethoxy)phenyl)benzo[d][1,2,3]triazin-4(3H)-one], for which the inhibition at 1 µM in data set [1] (setting [3]) and in data set [1] (setting [4]) was 61% each time. Further, the “HERG*” value on hERG potassium channel stood at 42%. For the same molecule, the MS Human THalf in data set [2] is 101 min.

Take `O=c1c2cc(-c3ccc(OC(F)(F)F)cc3)ccc2nnn1CCc1ncccn1` [II-18, 3-(2-(pyrimidin-2-yl)ethyl)-6-(4-(trifluoromethoxy)phenyl)benzo[d][1,2,3]triazin-4(3H)-one]: the inhibition at 1 µM in data set [1] (setting [3]) and in data set [1] (setting [4]) was 66% each time. The “HERG*” value on hERG potassium channel was determined as 30%. Further, the MS Human THalf in data set [2] was determined as 130 min.

Take `O=c1c2cc(-c3ccc(OC(F)(F)F)cc3)ccc2nnn1CCOc1ncccn1` [II-32, 3-(2-(pyrimidin-2-yloxy)ethyl)-6-(4-(trifluoromethoxy)phenyl)benzo[d][1,2,3]triazin-4(3H)-one]: the inhibition at 1 µM in data set [1] (setting [3]) and in data set [1] (setting [4]) was 64% in each case. Besides, the “HERG*” value at hERG potassium channel is reported as 45%. In data set [2], this molecule had an MS Human THalf of 392 min.

With `N#Cc1ccnc(OCCn2nnc3ccc(-c4ccc(OC(F)(F)F)cc4)cc3c2=O)n1` [II-36, 2-(2-(4-oxo-6-(4-(trifluoromethoxy)phenyl)benzo[d][1,2,3]triazin-3(4H)-yl)ethoxy)pyrimidine-4-carbonitrile], the inhibition at 1 µM in data set [1] (setting [3]) and in data set [1] (setting [4]) was 43% throughout. The “HERG*” value on hERG potassium channel stood at 21%. In data set [2], this molecule registered an MS Human THalf of 157 min.

In the case of `O=c1c2cc(-c3ccc(OC(F)(F)F)cc3)ccc2nnn1C1CCNCC1` [II-38, 3-(piperidin-4-yl)-6-(4-(trifluoromethoxy)phenyl)benzo[d][1,2,3]triazin-4(3H)-one], the inhibition at 1 µM in data set [1] (setting [3]) and in data set [1] (setting [4]) was 33% each time. Further, at hERG potassium channel, the “HERG*” value is given as 58%. The molecule further gave an MS Human THalf in data set [2] greater than 395 min.

Take `O=c1c2cc(-c3ccc(OC(F)(F)F)cc3)ccc2nnn1CC1(CN2CCOCC2)CC1` [II-40, 3-((1-(morpholinomethyl)cyclopropyl)methyl)-6-(4-(trifluoromethoxy)phenyl)benzo[d][1,2,3]triazin-4(3H)-one]: the inhibition at 1 µM in data set [1] (setting [3]) and in data set [1] (setting [4]) was 48% in each case. Also, on hERG potassium channel, the “HERG*” value came out at 81%. The molecule further displayed an MS Human THalf in data set [2] of 2 min.

`O=c1c2cc(-c3ccc(OC(F)(F)F)cc3)ccc2nnn1Cc1noc(-c2ccccn2)n1` [II-54, 3-((5-(pyridin-2-yl)-1,2,4-oxadiazol-3-yl)methyl)-6-(4-(trifluoromethoxy)phenyl)benzo[d][1,2,3]triazin-4(3H)-one]: the inhibition at 1 µM in data set [1] (setting [3]) and in data set [1] (setting [4]) was 52% each time. Moreover, on hERG potassium channel, the “HERG*” value came out at 23%. In data set [2], the MS Human THalf came to 329 min.

As to `O=c1c2cc(-c3ccc(OC(F)(F)F)cc3)ccc2nnn1Cc1nnc(C2CC2)o1` [II-67, 3-((5-cyclopropyl-1,3,4-oxadiazol-2-yl)methyl)-6-(4-(trifluoromethoxy)phenyl)benzo[d][1,2,3]triazin-4(3H)-one], the inhibition at 1 µM in data set [1] (setting [3]) and in data set [1] (setting [4]) was 47% each time. In addition, at hERG potassium channel, the “HERG*” value was found to be 41%. In data set [2], this molecule gave an MS Human THalf greater than 395 min.

As to `Cc1ncc(Cn2nnc3ccc(-c4ccc(OC(F)(F)F)cc4)cc3c2=O)o1` [II-95, 3-((2-methyloxazol-5-yl)methyl)-6-(4-(trifluoromethoxy)phenyl)benzo[d][1,2,3]triazin-4(3H)-one], the inhibition at 1 µM in data set [1] (setting [3]) and in data set [1] (setting [4]) was 36% throughout. Moreover, at hERG potassium channel, the “HERG*” value was less than 10%. Further, the MS Human THalf in data set [2] was 280 min.

`O=c1c2cc(-c3ccc(OC(F)(F)F)cc3)ccc2cnn1Cc1ncccn1` [III-5, 2-(pyrimidin-2-ylmethyl)-7-(4-(trifluoromethoxy)phenyl)phthalazin-1(2H)-one]: the inhibition at 1 µM in data set [1] (setting [3]) and in data set [1] (setting [4]) was 44% throughout. For the same molecule, the “HERG*” value at hERG potassium channel came out at 13%. This molecule came in with an MS Human THalf in data set [2] of 30 min.

For `O=c1c2cc(-c3ccc(OC(F)(F)F)cc3)ccc2cnn1CCn1cccn1` [III-9, 2-(2-(1H-pyrazol-1-yl)ethyl)-7-(4-(trifluoromethoxy)phenyl)phthalazin-1(2H)-one], the inhibition at 1 µM in data set [1] (setting [3]) and in data set [1] (setting [4]) was 57% throughout. In addition, at hERG potassium channel, the “HERG*” value was 37%. In addition, the MS Human THalf in data set [2] was determined as 100 min.

`COc1cc(OC)nc(Cn2ncc3ccc(-c4ccc(OC(F)(F)F)cc4)cc3c2=O)n1` [III-19, 2-((4,6-dimethoxypyrimidin-2-yl)methyl)-7-(4-(trifluoromethoxy)phenyl)phthalazin-1 (2H)-one]: the inhibition at 1 µM in data set [1] (setting [3]) and in data set [1] (setting [4]) was 56% throughout. In addition, the “HERG*” value on hERG potassium channel came out at 23%. In data set [2], this molecule registered an MS Human THalf of 130 min.

Regarding `O=c1c2cc(-c3ccc(OC(F)(F)F)cc3)ccc2cnn1CCOc1ncccn1` [III-28, 2-(2-(pyrimidin-2-yloxy)ethyl)-7-(4-(trifluoromethoxy)phenyl)phthalazin-1 (2H)-one], the inhibition at 1 µM in data set [1] (setting [3]) and in data set [1] (setting [4]) was 75% throughout. Further, the “HERG*” value on hERG potassium channel was 51%. In data set [2], this molecule yielded an MS Human THalf of 170 min.

Regarding `Cc1noc(Cn2cnc3ccc(-c4ccc(OC(F)(F)F)cc4)cc3c2=O)n1` [IV-6, 3-((3-methyl-1,2,4-oxadiazol-5-yl)methyl)-6-(4-(trifluoromethoxy)phenyl)quinazolin-4(3H)-one], the inhibition at 1 µM in data set [1] (setting [3]) and in data set [1] (setting [4]) was 49% each time. In addition, at hERG potassium channel, the “HERG*” value was less than 10%. Besides, in data set [2], the MS Human THalf came out at 280 min.

With `O=C1c2cc(-c3ccc(C(F)(F)F)cc3)ccc2OCN1Cc1ccccn1` [VIII-1, 3-(pyridin-2-ylmethyl)-6-(4-(trifluoromethyl)phenyl)-2H-benzo[e][1,3]oxazin-4(3H)-one], the inhibition at 1 µM in data set [1] (setting [3]) and in data set [1] (setting [4]) was 52% throughout. For the same molecule, the MS Human THalf in data set [2] is 125 min.

`O=C1c2cc(-c3ccc(OC(F)(F)F)cc3)ccc2OCN1Cc1ncccn1` [VIII-20, 3-(pyrimidin-2-ylmethyl)-6-(4-(trifluoromethoxy)phenyl)-2H-benzo[e][1,3]oxazin-4(3H)-one]: the inhibition at 1 µM in data set [1] (setting [3]) and in data set [1] (setting [4]) was 62% throughout. Also, the “HERG*” value at hERG potassium channel is on record as less than 10%.

The record behind these values is patent US20150329558A1, “FUSED HETEROCYCLIC COMPOUNDS AS ION CHANNEL MODULATORS” (Gilead Sciences, Inc., priority 2011, published 2015).
